This is an account of results in patent publication US20240376149A1, “Novel Modulators of GABABR1a” (VIB VZW, priority 2021, published 2024).

*1 amine or outer side, *2 acyl side, *3 side chain or, on linkers, in order; H or OH if unused. Where a SMILES comes first, the peptide text is derived from it. Where no end group is shown, it is not given here. [ ]: non-standard residue; d: D form. X2 = O=C([C@H](CC1CCC(F)(F)CC1)N[*:1])[*:2]; 2Nal = N[C@@H](Cc1ccc2ccccc2c1)C(=O)O; hCha = N[C@@H](CCC1CCCCC1)C(=O)O; Cha = N[C@@H](CC1CCCCC1)C(=O)O; F72 = not defined here

Experiment [1] deals with T1, sushi domain 1 (SD1) of GABABR1a (Homo sapiens, UniProt Q9UBS5).
T1 construct: The synthetic gene encoding for residues 26-96 of the Sushi1 protein was cloned into a pFloat-SUMO vector; His-SUMO (with 3C protease site) (N, cleaved yes); made in house; host or cells: E. coli BL21(DE3)
Kind of experiment: Isothermal titration calorimetry (ITC) direct binding assay. The following applies: for ITC Kd: peptide titrated into Sushi-1 protein in PBS. The source says:
In contrast to the FP assay, the isothermal titration calorimetry (ITC) assay is a direct binding assay.
For biophysical and structural biology purposes the Sushi1 protein was expressed in a bacterial expression system. The synthetic gene encoding for residues 26-96 of the Sushi1 protein was cloned into a pFloat-SUMO vector, generating a His-tagged SUMO-Sushi1 fusion protein. The construct also contained a 3C protease cleavage site to remove the His-SUMO-tag. The pFloat-SUMO-Sushi1 plasmid was transformed in BL21(DE3) cells and plated on kanamycin ([…]) containing LB agar plates. A small LB culture, supplemented with […] kanamycin, was inoculated with a single colony of BL21(DE3)(pFloat-SUMO-Sushi1) and grown overnight at 37° C. 1 liter LB cultures were subsequently inoculated with 20 ml of this preculture and grown at 37° C. until OD600 reached 0.8. At this point protein expression was induced using 0.5 mM isopropyl β-D-1-thiogalactopyranoside (IPTG). Cells were incubated further overnight at 20° C. and subsequently harvested by centrifugation (Beckman rotor 8.1000, 5000 rpm, 15 min, 4C). The pellet was resuspended in 20 mM Tris pH 7.5, 500 mM NaCl, 10 mM imidazole, 5 mM β-mercaptoethanol, 0.1 mg/mL 4-(2-aminoethyl) benzenesulfonyl fluoride hydrochloride (AEBSF), 1 μg/mL leupeptine, 50 μg/mL DNasel and 20 mM MgCl2. The cells were lysed using a French press (Constant Systems) at 20 kpsi and the cell debris was removed by centrifugation. The cell lysate was loaded on a Ni-sepharose FF HiLoad column (GE Healthcare), equilibrated in 20 mM Tris pH 7.5, 500 mM NaCl, 10 mM imidazole, 5 mM […]. The bound proteins were eluted using a linear gradient to 500 mM imidazole. Fractions containing the His-SUMO-Sushi1 protein were pooled and dialysed overnight to 20 mM Tris pH 7.5, 150 mM NaCl, while cleaving with 3C protease. The cleaved sample was loaded again on a Ni-sepharose FF HiLoad column, equilibrated in the same buffer. The FT, containing the Sushi1 protein, was concentrated and applied to a BioRad S100 16/60 size exclusion column, equilibrated in 50 mM KPi buffer pH 6.0, 50 mM NaCl.
The Sushi-1 protein was dialysed overnight to PBS buffer and diluted to 30 μM in the same buffer. The peptides were resuspended in PBS at a stock concentration of 3 mM and diluted further in the same buffer to 300 μM. ITC experiments were performed on a Microcal ITC200 device. Titrations comprised 26×1.5 μL injections of peptide into protein, with 90 s intervals. An initial injection of ligand (0.5 μL) was made and discarded during data analysis. The data were fitted to a single binding site model using the Microcal LLC ITC200. Original software provided by the manufacturer.

Experiment [2] deals with T2, GABABR1a-SD1 (SD1-FITC-9mer complex) (Homo sapiens, UniProt Q9UBS5).
T2 construct: The synthetic gene encoding for residues 26-96 of the Sushi1 protein was cloned into a pFloat-SUMO vector; His-SUMO (with 3C protease site) (N, cleaved yes); made in house; host or cells: E. coli BL21(DE3)
Kind of experiment: Fluorescence polarization (FP) competition assay with FITC-9mer. The following applies: peptide at 50 μM; inhibition of FITC-9mer binding to SD1. In kind it is binding. The method, then: Intrigued by the surprising results of the 5-mer, it was decided to set up a medium- to high-throughput screen to optimize the 5-mer sequence. Several assays were tested to find a reproducible, robust and cost-effective assay that is also suitable for high-throughput screening. A fluorescence polarization (FP) assay was selected. FP measurements are well-known for receptor binding assays. The assay is based on the rotational movement of fluorescently labelled molecules in solution. […] The FP assay was optimized using the FITC labelled sAPP 9-mer (FIG. 1).
To screen for GABABR1a binders using unlabelled test compounds, the assay was turned into a competition assay using FITC-9mer. […] To validate this inhibitor assay, the IC50 values were determined of the 17-mer, 9-mer, 5-mer as well as those from 3 negative controls: 10-mer, scrambled 17-mer and a scrambled 9-mer (FIG. 2).
To determine if the peptides of this application were able to disrupt the SD1-9-mer complex, each peptide (in single point or dose-response curve) tested was incubate with SD1 protein for 1 h at RT. After this initially incubation, FITC-9mer was added to the previous mix and incubated during 2 h at RT. The signal intensity was measure in an appropriate plate reader using the following settings: Number of flashes per well: 200; Excitation: F482-16; Dichroic filter: FLP 504; Emission A F530-40; Gain A: 738, Gain B: 736. The assay was conducted in a 384-well plate.

Experiment [3] deals with T3, HEK293 cells expressing the ectodomain of GABABR1a comprising SD1 (Homo sapiens, UniProt Q9UBS5).
T3 construct: HEK293 were transfected with plasmids encoding the ectodomain of GABABR1a (as in Rice et al., 2019); expressed in transfected cells; host or cells: HEK293
Kind of experiment: Flow-cytometry cell-based binding assay, competition with biotinylated 9-mer. The following applies: peptide at 100 μM, inhibition of biotin-9mer (10 μM) binding. The method, then:
HEK cells expressing GABABR1a-SD1 were incubated with peptides of the application and the binding of 9-mer in the presence of the peptides was measured. The 9-mer peptide is biotinylated and detected with a commercial antibody.
Next, the top ranking compounds were tested in a cell-based binding assay. HEK293 cells were transformed to express the ectodomain of GABABR1a comprising SD1. In this cell-based assay, SD1 is expressed on the GABABR1a ectodomain and can adopt a more physiological conformation, compared to the purified SD1 protein used in the primary assay (FP assay).
HEK293 were transfected with plasmids encoding the ectodomain of GABABR1a (as in Rice et al., 2019), carrying a His-tag at the N-terminal. After 24 h of expression, cells were harvested and adjusted to a concentration of 1×10^6 cells/mL in ice-cold 2% FBS/PBS. Incubation with each peptide (in dose-response curve) was carried out at 4° C. for 1 h, followed by incubation with the biotion-9mer (10 μM) peptide during 30 min. Detection antibodies recognizing either His protein or biotin were added for a period of 30 min. The assay plate containing the cells was loaded into the Attune NxT Cytometer, parameters were adjusted accordingly with the cell type and signal intensity. In each experiment, positive and negative control were added to the plate.

For experiment [4], the target named is T4, Sushi domain 1 of the human GABA B1a receptor (human, UniProt Q9UBS5 26-96).
T4 construct: Purified recombinant protein from E. coli; also called SD1; GABABR1a-SD1
Kind of experiment: ITC. The procedure:
In the mutagenesis experiment of Example 1 we also included an 8-mer lacking position 9.
The Sushi-1 protein was dialysed overnight to PBS buffer and diluted to 30 μM in the same buffer. The peptides were resuspended in PBS at a stock concentration of 3 mM and diluted further in the same buffer to 300 μM. ITC experiments were performed on a Microcal ITC200 device. Titrations comprised 26×1.5 μL injections of peptide into protein, with 90 s intervals. An initial injection of ligand (0.5 μL) was made and discarded during data analysis. The data were fitted to a single binding site model using the Microcal LLC ITC₂₀₀. Original software provided by the manufacturer.
Background: Isothermal titration calorimetry measures the heat released or taken up as one component is titrated into another.

T4 sequence (Q9UBS5 26-96 limits assumed): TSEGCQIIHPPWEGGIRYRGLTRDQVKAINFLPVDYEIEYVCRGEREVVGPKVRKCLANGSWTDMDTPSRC
T2 sequence (Q9UBS5 26-96, one chain of several): as the sequence (Q9UBS5 26-96 limits assumed) above
T3 sequence (Q9UBS5 20-591 limits assumed): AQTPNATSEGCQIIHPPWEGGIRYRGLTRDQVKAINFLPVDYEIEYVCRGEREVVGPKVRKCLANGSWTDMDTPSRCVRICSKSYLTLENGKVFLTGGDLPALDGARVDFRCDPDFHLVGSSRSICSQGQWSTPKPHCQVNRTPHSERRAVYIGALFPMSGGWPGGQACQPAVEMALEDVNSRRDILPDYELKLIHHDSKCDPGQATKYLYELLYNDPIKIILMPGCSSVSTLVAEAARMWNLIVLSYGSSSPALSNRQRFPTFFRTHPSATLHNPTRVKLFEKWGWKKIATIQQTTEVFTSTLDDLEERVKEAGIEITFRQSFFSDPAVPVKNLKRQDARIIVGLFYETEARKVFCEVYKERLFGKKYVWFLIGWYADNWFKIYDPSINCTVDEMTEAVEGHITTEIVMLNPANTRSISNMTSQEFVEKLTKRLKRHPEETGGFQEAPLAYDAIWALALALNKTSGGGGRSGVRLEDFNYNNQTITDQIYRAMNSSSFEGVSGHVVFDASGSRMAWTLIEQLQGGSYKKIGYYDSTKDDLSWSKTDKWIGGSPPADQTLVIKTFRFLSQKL

What is called Kd is the constant that tells how readily two partners part at equilibrium. Higher therefore signals lower affinity. For `CC(C)[C@H](NC(=O)[C@H](CC(=O)O)NC(=O)[C@@H](CO)NC(=O)[C@@H](CC(=O)O)NC(=O)[C@H](N)CC(=O)O)C(=O)N[C@@H](Cc1c[nH]c2ccccc12)C(=O)N[C@@H](Cc1c[nH]c2ccccc12)C(=O)NCC(=O)NCC(=O)O` [VIB_P07, {D-ASP}{D-ASP}{D-SER}DVWWGG] (H-[dD][dD][dS]DVWWGG-OH; N-terminus and C-terminus assumed), the affinity in experiment [1], expressed as Kd, was 11 µM.
With `CC(C)[C@H](NC(=O)[C@H](CC(=O)O)NC(=O)[C@H](CO)NC(=O)[C@@H](CC(=O)O)NC(=O)[C@@H](N)CC(=O)O)C(=O)N[C@@H](Cc1c[nH]c2ccccc12)C(=O)N[C@@H](Cc1c[nH]c2ccccc12)C(=O)NCC(=O)NCC(=O)O` [VIB_P09, D{D-ASP}SDVWWGG] (H-D[dD]SDVWWGG-OH; N-terminus and C-terminus assumed), in experiment [1], the affinity, expressed as Kd, was 11 µM.
Same read-out and setting: to DDSDVWWG [VIB_P20, DDSDVWWG] belongs 1.95 µM.
What is called inhibition is the change of the read-out against control, counted positive when it falls. Molecule `CC[C@H](C)[C@H](NC(=O)[C@H](N)CC(=O)O)C(=O)N[C@@H](CC1CCCCC1)C(=O)N[C@@H](Cc1c[nH]c2ccccc12)C(=O)N[C@@H](CO)C(=O)O` [VIB-0068905] (H-[dD]I[Cha]WS-OH; N-terminus and C-terminus assumed) gave an inhibition at 50 µM in experiment [2] of 94.8%. In experiment [3], at 100 µM the inhibition was 68.3%.
“VIB-0068911: non-natural 5-mer d-I-F72-W-S; d = D-aspartate, F72 = (isoethylmethyl)benzene ([dD]I[F72]WS; not fully specified; printed as d-I-F72-W-S; reading uncertain)”: the “ITC Kd” value in experiment [1] is on record as “bound as good as the 17-mer”.
As for `CC[C@H](C)[C@H](NC(=O)[C@H](N)CC(=O)O)C(=O)N[C@@H](Cc1c[nH]c2cc(Cl)ccc12)C(=O)N[C@@H](Cc1c[nH]c2ccccc12)C(=O)N[C@@H](CO)C(=O)O` [VIB-0068894], the inhibition at 50 µM in experiment [2] is 96.8%. Further, in experiment [3], 100 µM produced 84.2% inhibition. Further, the “ITC Kd” value in experiment [1] was “bound as good as the 17-mer”.
In experiment [2], `CC[C@H](C)[C@H](NC(=O)[C@H](N)CC(=O)O)C(=O)N[C@@H](CCc1ccccc1)C(=O)N[C@@H](Cc1c[nH]c2ccccc12)C(=O)N[C@@H](CO)C(=O)O` [VIB-0068910] displayed an inhibition at 50 µM of 88.6%. The inhibition at 100 µM in experiment [3] is 54.2%.
With `CC[C@H](C)[C@H](NC(=O)[C@H](N)CC(=O)O)C(=O)N[C@@H](CC1CCC(F)(F)CC1)C(=O)N[C@@H](Cc1c[nH]c2ccccc12)C(=O)N[C@@H](CO)C(=O)O` [VIB-0068907] (H-[dD]I[X2]WS-OH; N-terminus and C-terminus assumed), the inhibition at 50 µM in experiment [2] is 86.2%. Besides, in experiment [3], testing at 100 µM gave an inhibition of 47.2%.
The corresponding values for `CC[C@H](C)[C@H](NC(=O)[C@H](N)CC(=O)O)C(=O)N[C@@H](CCC1CCCCC1)C(=O)N[C@@H](Cc1c[nH]c2ccccc12)C(=O)N[C@@H](CO)C(=O)O` [VIB-0068903] (H-[dD]I[hCha]WS-OH; N-terminus and C-terminus assumed) are 93.9% and 76%.
The corresponding values for `CC[C@H](C)[C@H](NC(=O)[C@H](N)CC(=O)O)C(=O)N[C@@H](Cc1ccc2ccccc2c1)C(=O)N[C@@H](Cc1c[nH]c2ccccc12)C(=O)N[C@@H](CO)C(=O)O` [VIB-0068895] (H-[dD]I[2Nal]WS-OH; N-terminus and C-terminus assumed) are 96.3% and 77%.
Take ADSAVWWGG [VIB_P05]: the binding result in experiment [4] is given as “binds”.
Same read-out and setting: in the case of DDSDVAWGG [VIB_P17] it was “binds”; in that of DDSDVWAGG [VIB_P18], “binds”; in that of DDSDAWWGG [VIB_P16], “binds”.
